From ChEMBL document CHEMBL1142734, “Biological properties of D- and L-1-deoxyazasugars” (J Med Chem, 2005)

What was measured:
[1] = biological target: T1, Cytosolic beta-glucosidase (Homo sapiens, UniProt Q9H227); assay: Inhibitory concentration against beta-glucosidase
T1 sequence (Q9H227 whole entry): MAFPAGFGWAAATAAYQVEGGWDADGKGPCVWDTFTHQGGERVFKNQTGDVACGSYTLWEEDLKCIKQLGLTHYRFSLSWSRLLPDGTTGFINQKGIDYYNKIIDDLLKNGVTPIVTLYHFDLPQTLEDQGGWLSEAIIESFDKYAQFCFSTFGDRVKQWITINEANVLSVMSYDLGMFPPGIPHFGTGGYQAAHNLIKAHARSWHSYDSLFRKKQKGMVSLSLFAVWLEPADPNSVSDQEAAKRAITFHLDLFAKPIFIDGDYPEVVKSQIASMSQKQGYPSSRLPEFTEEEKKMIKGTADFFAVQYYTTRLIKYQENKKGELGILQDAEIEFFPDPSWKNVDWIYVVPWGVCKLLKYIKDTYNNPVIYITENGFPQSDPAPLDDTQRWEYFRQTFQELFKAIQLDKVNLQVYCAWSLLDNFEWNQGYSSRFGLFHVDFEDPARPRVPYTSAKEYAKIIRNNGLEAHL

[2] = biological target: T2, Beta-galactosidase (Rattus norvegicus) (UniProt D3ZUM4); assay: Percent inhibition of beta galactosidase of rat epididymis at 1000 uM
T2 sequence (whole entry): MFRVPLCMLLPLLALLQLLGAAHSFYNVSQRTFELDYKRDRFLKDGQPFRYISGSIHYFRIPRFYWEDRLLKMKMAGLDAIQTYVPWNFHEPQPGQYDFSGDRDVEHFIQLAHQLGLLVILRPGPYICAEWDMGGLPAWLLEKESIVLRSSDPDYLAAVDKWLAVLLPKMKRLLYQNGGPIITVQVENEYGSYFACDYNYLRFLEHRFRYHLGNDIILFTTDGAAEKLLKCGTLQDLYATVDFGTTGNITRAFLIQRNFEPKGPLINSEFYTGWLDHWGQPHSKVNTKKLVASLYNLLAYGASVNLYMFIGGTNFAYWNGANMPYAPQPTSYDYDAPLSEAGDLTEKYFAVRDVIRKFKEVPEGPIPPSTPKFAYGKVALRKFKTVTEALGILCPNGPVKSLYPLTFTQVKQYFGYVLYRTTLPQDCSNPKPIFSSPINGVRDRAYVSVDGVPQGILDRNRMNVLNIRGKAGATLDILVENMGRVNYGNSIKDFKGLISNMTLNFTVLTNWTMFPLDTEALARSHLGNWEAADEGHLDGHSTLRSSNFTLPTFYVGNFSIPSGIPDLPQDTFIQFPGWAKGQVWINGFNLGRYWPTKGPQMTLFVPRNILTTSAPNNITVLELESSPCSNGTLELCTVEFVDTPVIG

[3] = biological target: T3, Cytosolic beta-glucosidase (Homo sapiens) (UniProt Q9H227); conditions: 1000 uM
T3 sequence (whole entry): T1 sequence (Q9H227 whole entry)

[4] = biological target: Alpha-galactosidase (Coffea arabica) (UniProt Q5DUH8); conditions: 1000 uM
Alpha-galactosidase (Coffea arabica), sequence (Q5DUH8 as listed by the source): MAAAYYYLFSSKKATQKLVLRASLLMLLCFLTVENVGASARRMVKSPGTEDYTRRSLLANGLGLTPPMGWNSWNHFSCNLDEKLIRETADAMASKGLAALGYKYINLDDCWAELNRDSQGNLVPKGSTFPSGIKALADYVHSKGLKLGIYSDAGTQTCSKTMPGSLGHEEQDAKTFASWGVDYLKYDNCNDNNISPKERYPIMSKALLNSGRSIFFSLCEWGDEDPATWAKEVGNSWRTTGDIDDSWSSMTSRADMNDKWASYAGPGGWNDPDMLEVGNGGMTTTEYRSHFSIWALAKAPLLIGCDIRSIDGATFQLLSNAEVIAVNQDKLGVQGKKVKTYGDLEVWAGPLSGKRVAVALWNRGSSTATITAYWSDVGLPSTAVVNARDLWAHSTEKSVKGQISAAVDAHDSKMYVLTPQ

[5] = biological target: T4, Beta-galactosidase (Bos taurus) (UniProt Q58D55); assay: Percent inhibition of beta-galactosidase of bovine liver at 1000 uM
T4 sequence (whole entry): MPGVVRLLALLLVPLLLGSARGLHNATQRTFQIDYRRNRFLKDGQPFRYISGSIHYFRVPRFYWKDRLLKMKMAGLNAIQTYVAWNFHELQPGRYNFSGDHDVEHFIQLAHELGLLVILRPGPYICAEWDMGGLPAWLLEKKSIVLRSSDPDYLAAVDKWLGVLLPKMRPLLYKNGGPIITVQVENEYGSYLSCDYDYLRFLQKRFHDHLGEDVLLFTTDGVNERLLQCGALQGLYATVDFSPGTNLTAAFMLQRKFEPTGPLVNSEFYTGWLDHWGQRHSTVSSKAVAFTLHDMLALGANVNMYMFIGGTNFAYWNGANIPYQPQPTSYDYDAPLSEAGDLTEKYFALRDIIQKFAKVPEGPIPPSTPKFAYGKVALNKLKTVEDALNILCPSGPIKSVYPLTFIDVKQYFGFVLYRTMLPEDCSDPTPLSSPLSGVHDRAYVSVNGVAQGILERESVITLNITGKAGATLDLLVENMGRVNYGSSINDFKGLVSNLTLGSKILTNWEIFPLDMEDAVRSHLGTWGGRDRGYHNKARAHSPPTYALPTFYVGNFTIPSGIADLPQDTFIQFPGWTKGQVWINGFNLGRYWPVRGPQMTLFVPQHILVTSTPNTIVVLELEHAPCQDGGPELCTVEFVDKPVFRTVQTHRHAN

[6] = biological target: T1, Cytosolic beta-glucosidase; assay: Inhibitory concentration against human beta-glucosidase
[7] = biological target: T5, Tissue alpha-L-fucosidase (Bos taurus, UniProt Q2KIM0); assay: Inhibitory concentration against alpha-L-fucosidase of bovine epididymis
T5 sequence (Q2KIM0 whole entry): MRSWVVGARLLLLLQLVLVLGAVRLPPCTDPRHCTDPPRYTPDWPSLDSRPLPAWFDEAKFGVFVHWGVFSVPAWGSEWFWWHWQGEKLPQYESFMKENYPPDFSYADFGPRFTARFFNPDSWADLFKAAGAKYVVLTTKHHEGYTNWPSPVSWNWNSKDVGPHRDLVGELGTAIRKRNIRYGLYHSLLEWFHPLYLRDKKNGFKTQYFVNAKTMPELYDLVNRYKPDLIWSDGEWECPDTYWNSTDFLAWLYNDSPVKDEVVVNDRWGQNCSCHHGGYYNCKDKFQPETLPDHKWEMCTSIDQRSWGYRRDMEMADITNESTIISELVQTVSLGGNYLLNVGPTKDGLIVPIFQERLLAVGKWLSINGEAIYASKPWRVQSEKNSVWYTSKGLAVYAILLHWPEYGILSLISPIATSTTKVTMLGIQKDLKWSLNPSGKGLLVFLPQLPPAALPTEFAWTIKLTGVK

[8] = biological target: T5, Tissue alpha-L-fucosidase; assay: Ki value against bovine alpha-L-fucosidase

IC50 [1] [µM]	inhibition [2] [%]	inhibition [3] [%]	inhibition [4] [%]	inhibition [5] [%]	IC50 [6] [µM]	IC50 [7] [µM]	Ki [8] [µM]	SMILES
80	< 50	–	–	–	240	–	–	OC[C@H]1NC[C@H](O)[C@@H](O)[C@@H]1O [DUVOGLUSTAT]
60	–	–	–	–	66	–	–	OC[C@H]1NC[C@@H](O)[C@H](O)[C@H]1O
–	–	< 50	–	< 50	–	–	–	OC[C@H]1NC[C@H](O)[C@H](O)[C@@H]1O
–	–	< 50	–	< 50	–	–	–	OC[C@H]1NC[C@H](O)[C@H](O)[C@H]1O

Second part, the compound before the results:

SMILES	IC50 [1] [µM]	inhibition [2] [%]	inhibition [3] [%]	inhibition [4] [%]	inhibition [5] [%]	IC50 [6] [µM]	IC50 [7] [µM]	Ki [8] [µM]
OC[C@@H]1NC[C@@H](O)[C@H](O)[C@H]1O	980	< 50	< 50	< 50	–	–	–	–
OC[C@@H]1NC[C@H](O)[C@H](O)[C@H]1O	–	–	< 50	< 50	< 50	–	–	–
OC[C@@H]1NC[C@@H](O)[C@@H](O)[C@H]1O	–	–	< 50	–	< 50	–	–	–
OC[C@@H]1NC[C@H](O)[C@@H](O)[C@@H]1O	–	–	< 50	< 50	< 50	–	–	–
OC[C@H]1NC[C@H](O)[C@@H](O)[C@H]1O	–	–	< 50	–	< 50	–	–	–
OC[C@@H]1NC[C@@H](O)[C@@H](O)[C@@H]1O	–	–	< 50	< 50	< 50	–	156	14
OC[C@@H]1NC[C@@H](O)[C@H](O)[C@@H]1O	–	–	< 50	–	–	–	–	0.08
OC[C@H]1NC[C@@H](O)[C@@H](O)[C@@H]1O [DEOXYMANNOJIRIMYCIN]	–	–	< 50	< 50	< 50	–	39	4.7
